SMILES strings stand for the structures.

EC50 data for two molecules are collected here from ChEMBL document CHEMBL1154572, “Stephanotic acid, a novel cyclic pentapeptide from the stem of Stephanotis floribunda” (2000).

The subject of one assay is KB. In words: Cytotoxicity against human KB cells. The class given is functional. As to conditions: read-out: ED50.
For a further assay, the system named is L1210. Nature of the assay: Cytotoxicity against mouse L1210 cells. As to conditions: L1210, read-out: ED50. The format is functional.

On to `CC[C@H](C)[C@@H]1NC(=O)[C@@H](NC(=O)[C@@H]2CCC(=O)N2)[C@@H](C(C)C)c2ccc3c(c[nH]c3c2)C[C@@H](C(=O)OC)NC(=O)[C@H](C(C)C)NC1=O` [METHYL STEPHANATE], for which the EC50 in the assay on KB and in the assay with L1210 was over 50 µg/mL in each case.
`CC[C@H](C)[C@@H]1NC(=O)[C@@H](NC(=O)[C@@H]2CCC(=O)N2)[C@@H](C(C)C)c2ccc3c(c[nH]c3c2)C[C@@H](C(=O)O)NC(=O)[C@H](C(C)C)NC1=O` [STEPHANOTIC ACID]: the EC50 in the assay on KB and with L1210 was over 50 µg/mL throughout.
